Measured values reported in patent US20220289727A1, “ENZYME INHIBITORS” (KALVISTA PHARMACEUTICALS LIMITED, priority 2019, published 2022).

target: T1, Human Factor XIIa (Homo sapiens, UniProt P00748); test: Determination of FXIIa inhibitory activity in vitro (fluorogenic substrate H-DPro-Phe-Arg-AFC); assay type: biochemical; settings: 25° C., residual enzyme activity (initial rate)
T1 construct: Human Factor XIIa (Enzyme Research Laboratories) was incubated; purchased Enzyme Research Laboratories
T1 sequence (P00748 373-615 limits assumed): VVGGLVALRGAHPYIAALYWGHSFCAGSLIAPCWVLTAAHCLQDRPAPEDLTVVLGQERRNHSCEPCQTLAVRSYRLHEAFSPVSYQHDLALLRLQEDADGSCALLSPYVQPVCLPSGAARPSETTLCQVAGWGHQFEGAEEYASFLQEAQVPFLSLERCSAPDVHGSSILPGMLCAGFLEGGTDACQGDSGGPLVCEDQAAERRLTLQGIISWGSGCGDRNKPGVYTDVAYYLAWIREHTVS
T1 sequence (P00748 20-372 partner limits assumed): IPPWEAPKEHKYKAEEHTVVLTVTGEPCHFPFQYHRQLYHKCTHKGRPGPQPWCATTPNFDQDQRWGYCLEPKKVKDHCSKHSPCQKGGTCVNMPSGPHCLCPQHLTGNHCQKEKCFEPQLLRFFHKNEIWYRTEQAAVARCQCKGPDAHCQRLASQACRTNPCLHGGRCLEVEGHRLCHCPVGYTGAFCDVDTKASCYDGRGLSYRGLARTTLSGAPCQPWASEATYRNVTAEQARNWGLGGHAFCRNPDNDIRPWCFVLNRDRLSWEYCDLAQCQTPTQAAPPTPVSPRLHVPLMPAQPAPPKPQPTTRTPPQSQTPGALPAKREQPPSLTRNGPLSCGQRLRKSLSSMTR

Row | Structure (SMILES) | IC50 [µM]
1 | CN(C)Cc1sc(C(=O)NCc2ccc3c(N)nccc3c2)cc1Cl [Example 2.01] | 10 to 40
2 | Nc1nccc2cc(CNC(=O)c3cc(Cl)c(CNCc4ccccc4)s3)ccc12 [Example 2.02] | 10 to 40
3 | Nc1nccc2cc(CNC(=O)c3cc(Cl)c(CNc4ccccc4)s3)ccc12 [Example 2.03] | 10 to 40
4 | COc1ccc(CNCc2sc(C(=O)NCc3ccc4c(N)nccc4c3)cc2Cl)cc1 [Example 2.05] | 10 to 40
5 | COc1cccc(CNCc2sc(C(=O)NCc3ccc4c(N)nccc4c3)cc2Cl)c1 [Example 2.06] | 10 to 40
6 | COc1ccccc1CNCc1sc(C(=O)NCc2ccc3c(N)nccc3c2)cc1Cl [Example 2.07] | 10 to 40
7 | CN(C)c1ccccc1CNCc1sc(C(=O)NCc2ccc3c(N)nccc3c2)cc1Cl [Example 2.08] | 10 to 40
8 | CS(=O)(=O)c1ccc(CNCc2sc(C(=O)NCc3ccc4c(N)nccc4c3)cc2Cl)cc1 [Example 2.11, N-[(1-Aminoisoquinolin-6-yl)methyl]-4-chloro-5-({[(4-methanesulfonylphenyl)methyl]amino}methyl)thiophene-2-carboxamide] | 3 to 10
9 | CS(=O)(=O)c1cccc(CNCc2sc(C(=O)NCc3ccc4c(N)nccc4c3)cc2Cl)c1 [Example 2.12] | 3 to 10
10 | CS(=O)(=O)c1ccccc1CNCc1sc(C(=O)NCc2ccc3c(N)nccc3c2)cc1Cl [Example 2.13] | 10 to 40
11 | N#Cc1cccc(CNCc2sc(C(=O)NCc3ccc4c(N)nccc4c3)cc2Cl)c1 [Example 2.15] | 10 to 40
12 | Nc1nccc2cc(CNC(=O)c3cc(Cl)c(CNCCOc4ccccc4)s3)ccc12 [Example 2.21] | 10 to 40
13 | Nc1nccc2cc(CNC(=O)c3cc(Cl)c(CNCc4ccc5c(c4)OCO5)s3)ccc12 [Example 2.28] | 10 to 40
14 | Nc1nccc2cc(CNC(=O)c3cc(Cl)c(CNCc4ccccn4)s3)ccc12 [Example 2.30] | 10 to 40
15 | Nc1nccc2cc(CNC(=O)c3cc(Cl)c(CNCc4ccncc4)s3)ccc12 [Example 2.31] | 3 to 10
16 | Nc1nccc2cc(CNC(=O)c3cc(Cl)c(CNCc4cccnc4)s3)ccc12 [Example 2.32] | 3 to 10
17 | CN(C)CCOc1ccc(CNCc2sc(C(=O)NCc3ccc4c(N)nccc4c3)cc2Cl)cc1 [Example 2.35] | 3 to 10
18 | Nc1nccc2cc(CNC(=O)c3cc(Cl)c(CNCC4CCN(Cc5ccccc5)CC4)s3)ccc12 [Example 2.40] | 3 to 10
19 | Nc1nccc2cc(CNC(=O)c3cc(Cl)c(CNCc4ccc(N5CCCCC5=O)cc4)s3)ccc12 [Example 2.41] | 10 to 40

Row | Structure (SMILES) | IC50 [µM]
20 | Nc1nccc2cc(CNC(=O)c3cc(Cl)c(CNCc4cccc(N5CCCC5=O)c4)s3)ccc12 [Example 2.42] | 10 to 40
21 | CN(Cc1sc(C(=O)NCc2ccc3c(N)nccc3c2)cc1Cl)CC1CCN(c2ccncc2)CC1 [Example 2.44] | 3 to 10
22 | CN(C)CCCOc1cccc(CN(C)Cc2sc(C(=O)NCc3ccc4c(N)nccc4c3)cc2Cl)c1 [Example 2.45] | 3 to 10
23 | CN(Cc1sc(C(=O)NCc2ccc3c(N)nccc3c2)cc1Cl)C1CCOCC1 [Example 2.46] | 10 to 40
24 | COc1ccc(NCc2sc(C(=O)NCc3ccc4c(N)nccc4c3)cc2Cl)cc1 [Example 2.48] | 10 to 40
25 | CS(=O)(=O)c1ccc(NCc2sc(C(=O)NCc3ccc4c(N)nccc4c3)cc2Cl)cc1 [Example 2.49] | 3 to 10
26 | N#Cc1ccc(CNCc2sc(C(=O)NCc3ccc4c(N)nccc4c3)cc2Cl)cc1 [Example 2.50] | 10 to 40
27 | CN(C)CCCOc1cccc(CNCc2sc(C(=O)NCc3ccc4c(N)nccc4c3)cc2Cl)c1 [Example 2.52] | 3 to 10
28 | CN1C(C)(C)CC(NCc2sc(C(=O)NCc3ccc4c(N)nccc4c3)cc2Cl)CC1(C)C [Example 2.53] | 3 to 10
29 | CC(=O)Nc1cccc(NCc2sc(C(=O)NCc3ccc4c(N)nccc4c3)cc2Cl)c1 [Example 2.55] | 10 to 40
30 | Nc1nccc2cc(CNC(=O)c3cc(Cl)c(CNCc4ccc(CN5CCCC5=O)cc4)s3)ccc12 [Example 2.57] | 3 to 10
31 | Nc1nccc2cc(CNC(=O)c3cc(Cl)c(CN4CCC(F)(F)C4)s3)ccc12 [Example 5.08] | 10 to 40
32 | Nc1nccc2cc(CNC(=O)c3cc(Cl)c(CN4Cc5ccccc5C4)s3)ccc12 [Example 5.09] | 10 to 40
33 | Nc1nccc2cc(CNC(=O)c3cc(Cl)c(CN4CCc5ncccc5C4)s3)ccc12 [Example 5.10] | 3 to 10
34 | Nc1nccc2cc(CNC(=O)c3cc(Cl)c(CN4CC(O)C4)s3)ccc12 [Example 5.11] | 10 to 40
35 | Nc1nccc2cc(CNC(=O)c3cc(Cl)c(CN4CCC(CCN5CCCC5=O)CC4)s3)ccc12 [Example 5.13] | 10 to 40
36 | Nc1nccc2cc(CNC(=O)c3cc(Cl)c(CN4CCC5(CC4)OCCO5)s3)ccc12 [Example 5.14] | 10 to 40
37 | CS(=O)(=O)c1ccc(OCc2sc(C(=O)NCc3ccc4c(N)nccc4c3)cc2Cl)cc1 [Example 7.01] | 10 to 40
38 | Cn1cnc2cc(OCc3sc(C(=O)NCc4ccc5c(N)nccc5c4)cc3Cl)ccc21 [Example 7.02] | 10 to 40

The remaining lines, values ahead:

Row | IC50 [µM] | Structure (SMILES)
39 | 3 to 10 | Nc1nccc2cc(CNC(=O)c3cc(Cl)c(CNCCN4CCCCC4)s3)ccc12 [Example 2.04]
40 | 10 to 40 | COCCNCc1sc(C(=O)NCc2ccc3c(N)nccc3c2)cc1Cl [Example 2.09]
41 | 10 to 40 | Nc1nccc2cc(CNC(=O)c3cc(Cl)c(CNCC4CCOCC4)s3)ccc12 [Example 2.10]
42 | 3 to 10 | CN(C)CCNCc1sc(C(=O)NCc2ccc3c(N)nccc3c2)cc1Cl [Example 2.16]
43 | 10 to 40 | Nc1nccc2cc(CNC(=O)c3cc(Cl)c(CNC4CCOCC4)s3)ccc12 [Example 2.17]
44 | 10 to 40 | Nc1nccc2cc(CNC(=O)c3cc(Cl)c(CNCCN4CCOCC4)s3)ccc12 [Example 2.18]
45 | 3 to 10 | CN1CCN(CCNCc2sc(C(=O)NCc3ccc4c(N)nccc4c3)cc2Cl)CC1 [Example 2.19]
46 | 3 to 10 | CN1CCC(CNCc2sc(C(=O)NCc3ccc4c(N)nccc4c3)cc2Cl)CC1 [Example 2.20]
47 | 10 to 40 | Nc1nccc2cc(CNC(=O)c3cc(Cl)c(CNCCCOc4ccccc4)s3)ccc12 [Example 2.22]
48 | 10 to 40 | Nc1nccc2cc(CNC(=O)c3cc(Cl)c(CNCCn4ccnc4)s3)ccc12 [Example 2.23]
49 | 10 to 40 | CC(=O)N1CCN(CCNCc2sc(C(=O)NCc3ccc4c(N)nccc4c3)cc2Cl)CC1 [Example 2.24]
50 | 10 to 40 | Nc1nccc2cc(CNC(=O)c3cc(Cl)c(CNCCN4CCS(=O)(=O)CC4)s3)ccc12 [Example 2.25]
51 | 10 to 40 | CC(C)CCNCc1sc(C(=O)NCc2ccc3c(N)nccc3c2)cc1Cl [Example 2.26]
52 | 10 to 40 | CC(=O)NCCNCc1sc(C(=O)NCc2ccc3c(N)nccc3c2)cc1Cl [Example 2.27]
53 | 10 to 40 | CN1CCCc2cc(CNCc3sc(C(=O)NCc4ccc5c(N)nccc5c4)cc3Cl)ccc21 [Example 2.29]
54 | 3 to 10 | CN(C)CCCNCc1sc(C(=O)NCc2ccc3c(N)nccc3c2)cc1Cl [Example 2.33]
55 | 3 to 10 | CC(C)N1CCN(CCCNCc2sc(C(=O)NCc3ccc4c(N)nccc4c3)cc2Cl)CC1 [Example 2.34]

Row | IC50 [µM] | Structure (SMILES)
56 | 3 to 10 | CN1CCN(CCCNCc2sc(C(=O)NCc3ccc4c(N)nccc4c3)cc2Cl)CC1 [Example 2.37]
57 | 10 to 40 | Nc1nccc2cc(CNC(=O)c3cc(Cl)c(CNCCN4CCCC4=O)s3)ccc12 [Example 2.38]
58 | 10 to 40 | CN1CCN(c2ccccc2CNCc2sc(C(=O)NCc3ccc4c(N)nccc4c3)cc2Cl)CC1 [Example 2.39]
59 | 10 to 40 | Nc1nccc2cc(CNC(=O)c3cc(Cl)c(CNCC(=O)NC4CCCC4)s3)ccc12 [Example 2.43]
60 | 10 to 40 | CN1CCC(N(C)Cc2sc(C(=O)NCc3ccc4c(N)nccc4c3)cc2Cl)CC1 [Example 2.47]
61 | 10 to 40 | CC(=O)NCCCNCc1sc(C(=O)NCc2ccc3c(N)nccc3c2)cc1Cl [Example 2.51]
62 | 3 to 10 | Nc1nccc2cc(CNC(=O)c3cc(Cl)c(CNCCn4cncn4)s3)ccc12 [Example 2.54]
63 | 3 to 10 | CC(C)N(CCNCc1sc(C(=O)NCc2ccc3c(N)nccc3c2)cc1Cl)C(C)C [Example 2.56]
64 | 10 to 40 | Nc1nccc2cc(CNC(=O)c3cc(Cl)c(CN4CCN(Cc5cccnc5)CC4)s3)ccc12 [Example 5.01]
65 | 3 to 10 | CN1CCCN(Cc2sc(C(=O)NCc3ccc4c(N)nccc4c3)cc2Cl)CC1 [Example 5.02]
66 | 10 to 40 | Nc1nccc2cc(CNC(=O)c3cc(Cl)c(CN4CCOCC4)s3)ccc12 [Example 5.03]
67 | 10 to 40 | CN1CCN(Cc2sc(C(=O)NCc3ccc4c(N)nccc4c3)cc2Cl)CC1 [Example 5.04]
68 | 10 to 40 | CC(=O)N1CCN(Cc2sc(C(=O)NCc3ccc4c(N)nccc4c3)cc2Cl)CC1 [Example 5.05]
69 | 10 to 40 | CC(C)N1CCN(Cc2sc(C(=O)NCc3ccc4c(N)nccc4c3)cc2Cl)CC1 [Example 5.06]
70 | 10 to 40 | CS(=O)(=O)N1CCN(Cc2sc(C(=O)NCc3ccc4c(N)nccc4c3)cc2Cl)CC1 [Example 5.07]
71 | 10 to 40 | Nc1nccc2cc(CNC(=O)c3cc(Cl)c(CN4CCN(c5cnccn5)CC4)s3)ccc12 [Example 5.15]
